Experimental data from patent US12502386B2, “Nitrogen-containing heterocyclic compound and use thereof” (SHANGHAI SHIJIANG BIOTECHNOLOGY CO., LTD, priority 2022, dated 2025).

Columns and labels:
[1] = system: Con-NCI-H82 cell; assay: CellTiter-Glo cell viability, Con-NCI-H82 cell (empty-vector control); format: cell-based, human; conditions: Homo sapiens, NCI-H82, NCI-H82 transfected with empty virus vector (control), intracellular ATP, read-out: inhibitory effect on Con-NCI-H82 (IC50)
[2] = system: ov-NNMT NCI-H82 cell; assay: CellTiter-Glo cell viability, ov-NNMT NCI-H82 cell (NNMT overexpressed); format: cell-based, human; conditions: Homo sapiens, NCI-H82, NCI-H82 overexpressing NNMT protein, intracellular ATP, read-out: inhibitory effect on OV-NNMT NCI-H82 (IC50)
[3] = system: sh-DNMT1 NCI-H82 cell; assay: CellTiter-Glo cell viability, sh-DNMT1 NCI-H82 cell (DNMT1 knocked down); format: cell-based, human; conditions: Homo sapiens, NCI-H82, NCI-H82 with DNMT1 knocked down by shRNA, intracellular ATP, read-out: inhibitory effect on sh-DNMT1 NCI-H82 (IC50)
[4] = system: NCI-H82; assay: CellTiter-Glo cell viability, tumor cell line NCI-H82; format: cell-based; conditions: NCI-H82, 72 h; human small cell lung cancer cell; 3 days of culture; read-out: inhibitory effect on NCI-H82 (IC50)
Method: (§1) Cell viability was detected using the Promega CellTiter-Glo kit, cell viability was determined by directly measuring intracellular ATP content. In the experiment, the IC50 value of the compounds prepared in the Examples of the present invention on various tumor cell lines was detected.
(§2) Each tumor cell was cultured in relevant medium. After cell passage, the gradient diluted compounds prepared in the Examples of the present invention was added. After 3 days of culture, the relevant IC50 (50% inhibiting concentration) was measured. The name, source and culture conditions of each tumor cell line were as follows:
Cell line NCI-H82 (ATCC, No. HTB-175) was cultured in 10% fetal bovine serum-containing RPMI1640 medium (+P/S).

[5] = system: G-401; assay: CellTiter-Glo cell viability, tumor cell line G-401; format: cell-based; conditions: G-401, 72 h; human renal carcinoma Wilms cell; 3 days of culture; read-out: inhibitory effect on G-401 (IC50)
Method: as §1, §2
Cell line G-401 (ATCC, No. CRL-1441) was cultured in 10% fetal bovine serum-containing McCoy's 5a medium (+P/S).

[6] = system: MDA-MB-453; assay: CellTiter-Glo cell viability, tumor cell line MDA-MB-453; format: cell-based; conditions: Homo sapiens, MDA-MB-453, 72 h; breast cancer cell; 3 days of culture; read-out: inhibitory effect on MDA-MB-453 (IC50)
Method: as §1
as §2, with “follows: […]” for “follows:”

[7] = system: SW48; assay: CellTiter-Glo cell viability, tumor cell line SW48; format: cell-based; conditions: SW48, 72 h; human colon adenocarcinoma cell; 3 days of culture; read-out: inhibitory effect on SW48 (IC50)
Method: as §1, §2
Cell line SW48 (ATCC, No. CCL-231) was cultured in 10% fetal bovine serum-containing Leibovitz's L-15 medium (+P/S).

[8] = system: CFPAC-1; assay: CellTiter-Glo cell viability, tumor cell line CFPAC-1; format: cell-based; conditions: CFPAC-1, 72 h; human pancreatic cancer cell; 3 days of culture; read-out: inhibitory effect on CFPAC-1 (IC50)
Method: as §1, §2
Cell line CFPAC-1 (ATCC, No. CRL-1918) was cultured in 10% fetal bovine serum-containing IMDM medium (+P/S).

[9] = system: 786-O; assay: CellTiter-Glo cell viability, tumor cell line 786-O; format: cell-based; conditions: Homo sapiens, 786-0, 72 h; clear cell renal cell adenocarcinoma cell; 3 days of culture; read-out: inhibitory effect on 786-O (IC50)
Method: as §1, §2
Cell line 786-0 (ATCC, No. CRL-1932) was cultured in 10% fetal bovine serum-containing RPMI164B medium (+P/S).

[10] = system: GB-1; assay: CellTiter-Glo cell viability, tumor cell line GB-1; format: cell-based; conditions: GB-1, 72 h; human brain glioblastoma cell; 3 days of culture; read-out: inhibitory effect on GB-1 (IC50)
Method: as §1, §2
Cell line GB-1 (JCRB, No. IFO50489) was cultured in 10% fetal bovine serum-containing DMEM medium (+P/S).
(§3) Cell viability was detected using the Promega CellTiter-Glo kit, cell viability was determined by directly measuring intracellular ATP content. In the experiment, the IC50 value of the compounds prepared in the Examples of the present invention on various brain tumor cell lines was detected.

[11] = system: SF-126; assay: CellTiter-Glo cell viability, tumor cell line SF-126; format: cell-based; conditions: SF-126, 72 h, read-out: inhibitory effect on SF-126 (IC50); human glioblastoma multiforme cell; 3 days of culture
Method: as §1, §2
Cell line SF126 (JCRB, No. IFO50286) was cultured in 10% fetal bovine serum-containing EMEM medium (+P/S).
as §3

[12] = system: D341 Med; assay: CellTiter-Glo cell viability, brain tumor cell line D341 Med; format: cell-based; conditions: Homo sapiens, 72 h, cerebellar medulloblastoma cell, 3 days of culture, read-out: inhibitory effect on D341 Med (IC50)
Method: as §3, §2
Cell line D341 Med (ATCC, No. HTB-187) was cultured in 20% fetal bovine serum-containing EMEM medium (+P/S).

[13] = system: Kelly; assay: CellTiter-Glo cell viability, brain tumor cell line Kelly; format: cell-based; conditions: Homo sapiens, 72 h, brain neuroblastoma cell, 3 days of culture, read-out: inhibitory effect on Kelly (IC50)
Method: as §3, §2
Cell line Kelly (ECACC, No. 92110411) was cultured in 10% fetal bovine serum and 2 mM glutamine-containing RPMI1640 medium.

[14] = system: NB-1; assay: CellTiter-Glo cell viability, brain tumor cell line NB-1; format: cell-based; conditions: Homo sapiens, NB1, 72 h; brain neuroblastoma cell; 3 days of culture; read-out: inhibitory effect on NB-1 (IC50)
Method: as §3
as §2, with “follows: […]” for “follows:”

Row | Structure (SMILES) | IC50 [1] [nM] | IC50 [2] [nM] | IC50 [3] [nM] | IC50 [4] [nM] | IC50 [5] [nM] | IC50 [6] [nM] | IC50 [7] [nM] | IC50 [8] [nM] | IC50 [9] [nM] | IC50 [10] [nM] | IC50 [11] [nM] | IC50 [12] [nM] | IC50 [13] [nM] | IC50 [14] [nM]
1 | CCCOc1c(OC)ccc2c1C(C(Cl)(Cl)Cl)N1CCc3cc4c(cc3C1=C2)OCO4 (stereo not drawn) [AB35506] | 830 | 2660 | 2520 | 830 | 1270 | 1560 | 2130 | 14100 | 10300 | 25500 | 19900 | 1660 | 3590 | 3880
2 | COc1ccc2c(c1OC)CN1CCc3cc4c(cc3C1=C2Cc1ccc(OC(F)(F)F)cc1)OCO4 [AB31866] | 820 | 1860 | 3480 | 820 | 1080 | 2320 | 1960 | 12400 | 15600 | 10500 | 20100 | 1540 | 1320 | 2190
3 | [2H]C1c2c(ccc(OC)c2OCCC)C=C2c3cc4c(cc3CCN21)OCO4 (stereo not drawn) [AB36437] | 650 | 2730 | 3120 | 650 | 980 | 1340 | 2550 | 14400 | 20200 | 19900 | 16800 | 2120 | 1890 | 2580
4 | COc1ccc2c(c1N1CCC(C)CC1)C(C1CCCC1)N1CCc3cc4c(cc3C1=C2)OCO4 (stereo not drawn) [AB35510] | 310 | 1560 | 1860 | 310 | 1210 | 560 | 1990 | 13100 | 24700 | 14600 | 24300 | 760 | 2020 | 1680
5 | CCCOc1c(OC)ccc2c1C(C1CCCC1)N1CCc3cc4c(cc3C1=C2)OCO4 (stereo not drawn) [AB35512] | 620 | 2420 | 2320 | 620 | 1330 | 1560 | 2020 | 17300 | 15400 | 23500 | 18100 | 2010 | 4230 | 1560
6 | COc1ccc2c(c1OCCCCl)C(C1CCCC1)N1CCc3cc4c(cc3C1=C2)OCO4 (stereo not drawn) [AB35434] | 1680 | 5120 | 4980 | 1680 | 2640 | 2320 | 3050 | > 30000 | 22200 | 25700 | > 30000 | 3150 | 2460 | 2980
7 | COc1ccc2c(c1OCCCBr)C(C1CCCC1)N1CCc3cc4c(cc3C1=C2)OCO4 (stereo not drawn) [AB35430] | 850 | 3180 | 6320 | 850 | 1320 | 960 | 1560 | 12100 | 16100 | 16900 | 23400 | 1320 | 2010 | 2550
8 | COc1ccc2c(c1OCCCCN)C(C)N1CCc3cc4c(cc3C1=C2)OCO4 (stereo not drawn) [AB35429] | 1890 | 5320 | 5040 | 1890 | 2020 | 2430 | 1460 | 13400 | 12500 | 18400 | 15400 | 2020 | 3160 | 3450
9 | COc1ccc2c(c1OC)C(C1CCCC1)N1CCc3cc4c(cc3C1=C2CCCc1ccccc1)OCO4 (stereo not drawn) [AB35436] | 1270 | 3280 | 5320 | 1270 | 1890 | 1010 | 1560 | 11400 | 15400 | > 30000 | 22100 | 1540 | 3120 | 2980
